According to publication PMC5118716, “Structural basis of TRPA1 inhibition by HC-030031 utilizing species-specific differences” (Scientific Reports, 2016):
Changes are numbered by the printed parent chain.

Columns and labels:
Experiment in all cases: two-electrode voltage clamp, X. laevis oocytes
Assay type in all cases: cell-based
fTRPA1 [1] = biological target: T1, fTRPA1 (Xenopus tropicalis, UniProt A0A8J0QD66); settings: agonist
T1 construct: gene trpa1; full-length wild type (1144 residues); X. laevis oocytes (cRNA)
T1 sequence (A0A8J0QD66 1-1144): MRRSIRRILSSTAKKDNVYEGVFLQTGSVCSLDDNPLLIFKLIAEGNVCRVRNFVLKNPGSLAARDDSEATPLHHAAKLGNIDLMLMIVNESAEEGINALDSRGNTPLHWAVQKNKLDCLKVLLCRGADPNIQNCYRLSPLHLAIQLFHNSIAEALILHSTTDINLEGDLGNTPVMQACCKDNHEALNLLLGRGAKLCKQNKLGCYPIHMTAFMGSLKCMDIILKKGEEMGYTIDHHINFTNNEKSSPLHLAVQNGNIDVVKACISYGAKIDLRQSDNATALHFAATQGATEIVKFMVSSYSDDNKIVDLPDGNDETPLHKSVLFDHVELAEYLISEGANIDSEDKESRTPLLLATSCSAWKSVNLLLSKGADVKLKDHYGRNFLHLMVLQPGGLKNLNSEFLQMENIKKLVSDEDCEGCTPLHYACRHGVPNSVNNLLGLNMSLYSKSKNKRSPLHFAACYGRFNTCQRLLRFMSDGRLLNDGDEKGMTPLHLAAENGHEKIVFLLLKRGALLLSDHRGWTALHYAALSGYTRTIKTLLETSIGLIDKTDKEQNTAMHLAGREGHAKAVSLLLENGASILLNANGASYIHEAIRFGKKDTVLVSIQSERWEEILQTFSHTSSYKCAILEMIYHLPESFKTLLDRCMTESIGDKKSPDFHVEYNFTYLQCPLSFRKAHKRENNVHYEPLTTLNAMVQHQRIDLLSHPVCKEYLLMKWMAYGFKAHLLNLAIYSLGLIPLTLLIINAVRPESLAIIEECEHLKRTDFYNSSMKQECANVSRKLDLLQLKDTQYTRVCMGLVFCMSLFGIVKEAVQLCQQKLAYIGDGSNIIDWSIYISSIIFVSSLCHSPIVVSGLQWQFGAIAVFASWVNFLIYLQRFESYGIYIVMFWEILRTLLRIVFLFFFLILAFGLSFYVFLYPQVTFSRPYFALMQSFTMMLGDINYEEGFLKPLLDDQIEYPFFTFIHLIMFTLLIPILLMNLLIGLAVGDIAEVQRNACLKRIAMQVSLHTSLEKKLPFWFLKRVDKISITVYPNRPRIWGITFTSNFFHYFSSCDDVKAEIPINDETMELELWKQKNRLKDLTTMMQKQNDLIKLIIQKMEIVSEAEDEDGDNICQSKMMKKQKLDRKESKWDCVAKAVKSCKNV

hTRPA1 [2] = biological target: T2, hTRPA1 (Homo sapiens, UniProt O75762); settings: agonist, non-electrophilic; pH 7.4, -60 mV
T2 construct: gene TRPA1; full-length wild type (1119 residues); X. laevis oocytes (cRNA) or HEK293T cells (pcDNA3.1)
T2 sequence (O75762 whole entry): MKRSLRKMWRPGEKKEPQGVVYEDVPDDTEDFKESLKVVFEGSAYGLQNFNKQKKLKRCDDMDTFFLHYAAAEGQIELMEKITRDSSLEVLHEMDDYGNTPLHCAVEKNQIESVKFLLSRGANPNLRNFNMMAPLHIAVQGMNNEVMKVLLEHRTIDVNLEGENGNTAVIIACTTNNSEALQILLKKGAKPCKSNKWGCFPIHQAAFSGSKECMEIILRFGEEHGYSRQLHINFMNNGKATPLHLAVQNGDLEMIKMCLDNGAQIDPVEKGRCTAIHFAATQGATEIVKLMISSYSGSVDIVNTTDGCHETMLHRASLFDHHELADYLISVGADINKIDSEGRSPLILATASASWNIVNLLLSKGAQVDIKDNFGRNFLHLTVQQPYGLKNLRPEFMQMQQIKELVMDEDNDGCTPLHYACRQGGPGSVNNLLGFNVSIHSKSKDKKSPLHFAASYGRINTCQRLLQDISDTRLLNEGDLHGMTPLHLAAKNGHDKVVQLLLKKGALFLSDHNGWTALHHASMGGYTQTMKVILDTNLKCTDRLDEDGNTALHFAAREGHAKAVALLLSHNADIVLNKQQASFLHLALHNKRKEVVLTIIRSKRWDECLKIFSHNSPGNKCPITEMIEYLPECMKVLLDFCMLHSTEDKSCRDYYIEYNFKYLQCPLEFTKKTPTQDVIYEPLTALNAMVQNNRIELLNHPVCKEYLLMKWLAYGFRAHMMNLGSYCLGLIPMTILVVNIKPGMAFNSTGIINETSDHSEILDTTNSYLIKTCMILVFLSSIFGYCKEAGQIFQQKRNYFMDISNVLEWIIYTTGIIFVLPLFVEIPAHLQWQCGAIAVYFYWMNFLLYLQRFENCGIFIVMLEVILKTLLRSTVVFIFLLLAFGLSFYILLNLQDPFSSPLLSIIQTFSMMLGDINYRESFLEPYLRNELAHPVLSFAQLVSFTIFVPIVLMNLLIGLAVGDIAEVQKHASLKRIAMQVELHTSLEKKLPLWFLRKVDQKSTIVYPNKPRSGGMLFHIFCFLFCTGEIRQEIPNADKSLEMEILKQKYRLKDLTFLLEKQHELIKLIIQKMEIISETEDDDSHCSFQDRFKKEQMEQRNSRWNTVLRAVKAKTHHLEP

fTRPA1 [3] = biological target: T3, fTRPA1 (Xenopus tropicalis, UniProt A0A8J0QD66, S880N); settings: antagonist; vs 0.5 mM CA; pH 7.4, 1.8 mM CaCl2, -60 mV
T3 construct: gene trpa1; full-length wild type (1144 residues); X. laevis oocytes (cRNA)
T3 sequence (A0A8J0QD66 1-1144 S880N): T1 sequence (A0A8J0QD66 1-1144) with S880N

hTRPA1 [4] = biological target: T4, hTRPA1 (Homo sapiens, UniProt O75762, N855S); settings: antagonist; vs 0.3 mM CA; pH 7.4, 1.8 mM CaCl2, -60 mV
T4 construct: gene TRPA1; full-length wild type (1119 residues); X. laevis oocytes (cRNA) or HEK293T cells (pcDNA3.1)
T4 sequence (O75762 whole entry N855S): as the sequence (O75762 whole entry) above, with N855S counted along it

zTRPA1b = biological target: T5, zTRPA1b (Danio rerio, UniProt A0A8M1N2Z4, R860N); settings: antagonist; vs 1 mM CA; pH 7.4, 1.8 mM CaCl2, -60 mV
T5 construct: gene trpa1b; full-length; X. laevis oocytes (cRNA)
T5 sequence (A0A8M1N2Z4 1-1120 R860N): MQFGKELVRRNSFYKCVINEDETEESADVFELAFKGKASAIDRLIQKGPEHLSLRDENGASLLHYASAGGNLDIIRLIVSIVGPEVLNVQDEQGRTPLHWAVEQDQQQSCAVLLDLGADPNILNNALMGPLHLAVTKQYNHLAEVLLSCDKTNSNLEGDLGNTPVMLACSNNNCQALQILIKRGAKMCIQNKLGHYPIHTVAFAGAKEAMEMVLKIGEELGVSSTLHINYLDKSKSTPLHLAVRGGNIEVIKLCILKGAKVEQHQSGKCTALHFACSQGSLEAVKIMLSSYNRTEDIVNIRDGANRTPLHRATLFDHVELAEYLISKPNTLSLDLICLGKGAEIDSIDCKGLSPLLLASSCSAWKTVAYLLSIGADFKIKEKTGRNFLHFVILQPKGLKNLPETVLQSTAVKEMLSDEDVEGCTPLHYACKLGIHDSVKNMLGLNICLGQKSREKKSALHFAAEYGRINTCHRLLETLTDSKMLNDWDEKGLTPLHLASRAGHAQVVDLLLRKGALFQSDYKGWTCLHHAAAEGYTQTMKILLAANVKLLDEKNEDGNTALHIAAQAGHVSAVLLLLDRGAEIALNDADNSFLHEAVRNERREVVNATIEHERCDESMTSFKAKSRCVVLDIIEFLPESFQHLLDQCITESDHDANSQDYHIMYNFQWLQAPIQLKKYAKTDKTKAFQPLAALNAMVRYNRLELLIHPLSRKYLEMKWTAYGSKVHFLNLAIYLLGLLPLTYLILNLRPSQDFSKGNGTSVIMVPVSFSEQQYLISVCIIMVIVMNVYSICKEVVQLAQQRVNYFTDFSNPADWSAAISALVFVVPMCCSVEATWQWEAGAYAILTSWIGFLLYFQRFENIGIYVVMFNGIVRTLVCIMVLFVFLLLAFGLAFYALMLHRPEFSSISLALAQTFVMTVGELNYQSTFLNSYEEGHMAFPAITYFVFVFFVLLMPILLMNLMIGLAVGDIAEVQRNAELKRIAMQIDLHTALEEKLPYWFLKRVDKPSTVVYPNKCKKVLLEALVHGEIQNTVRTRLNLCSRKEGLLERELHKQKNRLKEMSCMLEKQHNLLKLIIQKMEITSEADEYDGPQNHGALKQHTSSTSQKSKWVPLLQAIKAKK

Compound: Cc1ccc(C(C)C)cc1O [carvacrol]
- two-electrode voltage clamp, X. laevis oocytes (fTRPA1 [1]; non-electrophilic, pH 7.4, -60 mV): hTRPA1 and fTRPA1 currents activated by the non-electrophilic compound carvacrol
- two-electrode voltage clamp, X. laevis oocytes (hTRPA1 [2]): hTRPA1 and fTRPA1 currents activated by the non-electrophilic compound carvacrol

Compound: CC(C)c1ccc(NC(=O)Cn2cnc3c2c(=O)n(C)c(=O)n3C)cc1 [HC, HC-030031]
- inhibition at 50 μM (fTRPA1 [3]): HC reduced the CA-evoked currents in the second application in fTRPA1-S880N
- inhibition at 50 μM (hTRPA1 [4]): hTRPA1-N855S showed significantly less sensitivity to HC than wt-hTRPA1 at all concentrations examined
- inhibition at 50 μM (zTRPA1b): significant reduction in current amplitudes in zTRPA1-R860N although wt-zTRPA1b showed no inhibition

Compound: O=CC=Cc1ccccc1 [CA, cinnamaldehyde]
- two-electrode voltage clamp, X. laevis oocytes (fTRPA1 [1]; 0.5 mM, covalent, pH 7.4, 1.8 mM CaCl2, -60 mV): TRPA1-mediated currents were activated by CA with approximately similar amplitude
